Measurements taken from ChEMBL document CHEMBL1201862, “PubChem BioAssay data set” (2004).
Activity calls are given as the source filed them.

Tests used:
HEK293 [1] = assay: membrane integrity loss in HEK cells – cell-based, fluorescence, cytotoxicity control for IDE activator project, dose response (AID 588440); format: functional; conditions: Homo sapiens;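 also: cytotoxicity by LDH release measuring loss of membrane integrity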
Insulin-degrading enzyme [2] = molecular target: T1, Insulin-degrading enzyme (Homo sapiens, UniProt P14735); assay: recombinant IDE activation, cell-free – biochemical, fluorescence polarization, counter-screen for IDE activator project, dose response (AID 588681)
T1 sequence (P14735 whole entry): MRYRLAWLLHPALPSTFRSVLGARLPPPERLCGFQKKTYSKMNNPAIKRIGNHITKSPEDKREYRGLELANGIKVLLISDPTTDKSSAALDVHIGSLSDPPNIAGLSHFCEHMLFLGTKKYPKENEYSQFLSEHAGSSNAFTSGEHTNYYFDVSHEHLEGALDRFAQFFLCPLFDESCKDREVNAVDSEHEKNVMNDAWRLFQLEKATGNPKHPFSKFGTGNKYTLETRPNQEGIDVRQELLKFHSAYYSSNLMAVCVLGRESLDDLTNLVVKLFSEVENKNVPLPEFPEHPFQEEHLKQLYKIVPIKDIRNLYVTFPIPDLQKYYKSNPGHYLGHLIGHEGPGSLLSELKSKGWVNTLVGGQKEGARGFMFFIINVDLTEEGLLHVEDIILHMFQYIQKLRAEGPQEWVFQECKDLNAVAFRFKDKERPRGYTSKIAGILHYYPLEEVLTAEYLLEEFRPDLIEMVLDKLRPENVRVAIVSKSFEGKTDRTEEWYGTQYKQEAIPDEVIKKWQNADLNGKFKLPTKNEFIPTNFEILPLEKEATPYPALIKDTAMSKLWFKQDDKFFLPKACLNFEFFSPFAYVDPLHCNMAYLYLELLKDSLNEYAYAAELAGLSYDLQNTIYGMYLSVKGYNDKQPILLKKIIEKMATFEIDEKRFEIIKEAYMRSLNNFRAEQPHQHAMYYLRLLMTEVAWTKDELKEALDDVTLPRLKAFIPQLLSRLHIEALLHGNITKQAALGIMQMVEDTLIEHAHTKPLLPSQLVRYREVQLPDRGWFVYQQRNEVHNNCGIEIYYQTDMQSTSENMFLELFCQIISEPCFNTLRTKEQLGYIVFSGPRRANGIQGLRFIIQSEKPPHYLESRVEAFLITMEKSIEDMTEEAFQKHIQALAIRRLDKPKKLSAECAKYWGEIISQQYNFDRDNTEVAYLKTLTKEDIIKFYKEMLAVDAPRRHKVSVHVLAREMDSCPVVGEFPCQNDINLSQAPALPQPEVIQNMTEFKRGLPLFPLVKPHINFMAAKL

[3] = molecular target: UDP-galactopyranose mutase (Mycobacterium tuberculosis, UniProt P9WIQ1); assay: Inhibitors of Mycobacterium tuberculosis UDP-galactopyranose mutase (UGM) enzyme Measured in Biochemical System Using Plate Reader - 2105-02_Inhibitor_Dose_CherryPick_Activity. [Related pubchem assays (depositor defined):AID504439]
ORF 73 = ORF 73 (Human herpesvirus 8, UniProt O40947); assay: KSHV LANA DNA-binding disruption – biochemical, fluorescence polarization, cherry-picked samples, dose response (AID 504725); parameters: species or system Human gammaherpesvirus 8;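 also: fluorescence polarization of a labeled DNA duplex reporting LANA DNA binding; potency is for inhibitors that block LANA binding to the DNA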
HEK293 [4] = assay: optical interference in Abeta FP readout, dose response, artefact control for IDE activator project, biochemical, fluorescence polarization (AID 588442); format: functional, cell-based; conditions: Homo sapiens
[5] = molecular target: T2, Apoptotic protease-activating factor 1 (Homo sapiens, UniProt O14727); format: functional
T2 sequence (O14727 whole entry): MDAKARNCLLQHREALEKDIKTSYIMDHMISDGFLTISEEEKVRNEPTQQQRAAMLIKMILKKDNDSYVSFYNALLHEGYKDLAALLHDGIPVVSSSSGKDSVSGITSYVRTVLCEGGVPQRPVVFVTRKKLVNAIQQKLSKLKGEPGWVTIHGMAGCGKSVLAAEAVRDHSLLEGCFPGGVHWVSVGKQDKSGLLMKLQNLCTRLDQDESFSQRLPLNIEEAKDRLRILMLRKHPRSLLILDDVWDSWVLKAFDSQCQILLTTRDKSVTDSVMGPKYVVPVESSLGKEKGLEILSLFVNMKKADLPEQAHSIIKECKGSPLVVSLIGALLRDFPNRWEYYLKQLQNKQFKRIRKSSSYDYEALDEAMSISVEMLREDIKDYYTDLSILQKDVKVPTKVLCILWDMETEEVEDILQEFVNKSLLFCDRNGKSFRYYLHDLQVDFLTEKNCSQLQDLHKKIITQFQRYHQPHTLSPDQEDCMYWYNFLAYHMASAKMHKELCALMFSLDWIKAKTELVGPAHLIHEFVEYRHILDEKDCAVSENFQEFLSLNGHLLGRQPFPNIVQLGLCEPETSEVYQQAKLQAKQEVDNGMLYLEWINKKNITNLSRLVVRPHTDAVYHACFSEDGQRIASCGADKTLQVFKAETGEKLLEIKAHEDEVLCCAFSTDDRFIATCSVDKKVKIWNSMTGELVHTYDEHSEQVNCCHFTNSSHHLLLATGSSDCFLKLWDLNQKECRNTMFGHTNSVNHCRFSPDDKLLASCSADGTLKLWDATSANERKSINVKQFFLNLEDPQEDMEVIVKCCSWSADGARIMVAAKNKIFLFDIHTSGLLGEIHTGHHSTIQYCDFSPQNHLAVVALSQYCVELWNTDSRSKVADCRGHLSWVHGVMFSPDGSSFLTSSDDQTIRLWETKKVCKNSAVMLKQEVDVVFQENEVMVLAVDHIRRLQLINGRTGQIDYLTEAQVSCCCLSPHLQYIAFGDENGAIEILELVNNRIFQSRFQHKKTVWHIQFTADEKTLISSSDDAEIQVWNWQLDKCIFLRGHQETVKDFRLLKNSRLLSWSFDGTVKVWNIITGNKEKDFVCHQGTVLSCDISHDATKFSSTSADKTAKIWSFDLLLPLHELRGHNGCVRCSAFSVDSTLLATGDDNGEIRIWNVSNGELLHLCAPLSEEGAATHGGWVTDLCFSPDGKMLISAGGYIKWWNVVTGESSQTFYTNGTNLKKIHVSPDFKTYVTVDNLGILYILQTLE

Insulin-degrading enzyme [6] = molecular target: T1, Insulin-degrading enzyme; assay: cellular IDE activation of Abeta substrate cleavage – fluorescence polarization, HEK cells, dose response (AID 588439); format: functional, cell-based
[7] = molecular target: Beta-adrenergic receptor kinase 1 (Homo sapiens, UniProt P25098); assay: blockers of aptamer binding to GRK2 – biochemical, flow cytometry beads, FAM-aptamer, powder set 1, dose response (AID 588720)
Jurkat = assay: blockers of NF-kB activation in T cells – Jurkat, luciferase reporter, luminescence, B- and T-cell, dose response (AID 489004); format: functional, cell-based; conditions: Homo sapiens;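 also: NF-kB luciferase reporter Jurkat cells stimulated with PMA plus ionomycin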
[8] = HEK-293T viability loss, compound-treated – cell-based, uHTS hits, cytotoxicity control for B/T-cell NF-kB inhibitor project, dose response (AID 489019); format: functional;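 also: IC50 reflects cytotoxicity as loss of cell viability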
[9] = Luminescence Cell-Based Dose Response HTS to Identify Inhibitors of 5'UTR Stem-Loop Driven Prion Protein mRNA Translation in H4 Neuroglioblastoma Cells. [Related pubchem assays: 1827 (Project Summary), 1813 (Primary HTS)]; format: functional
[10] = off-target signal loss in HeLa-CEM21 co-culture – HeLa F-luc CTL cells, cherry-picked, counter-screen for HIV-1 Env fusion inhibitor project, dose response (AID 652040); format: functional, cell-based;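 also: potency for signal decrease marking cytotoxic or nonspecific inhibition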
[11] = alpha-synuclein stem-loop luciferase translation blockers – H4 neuroglioma cells, luminescence, confirmation (AID 1988); format: functional, cell-based
[12] = HIV-1 AD8 envelope cell-cell fusion blockers – cherry-pick, dose response (AID 652062); format: functional, cell-based;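 also: luciferase signal from cell-cell fusion driven by HIV-1 clade B AD8 Env; potency is for inhibitors of fusion seen as a drop in luminescence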
[13] = viability loss in CEM21 cells – cell-based, CellTiter-Glo luminescence, cherry-picked, cytotoxicity control for viral fusion inhibitor project, dose response (AID 652042); format: functional;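 also: potency for signal decrease meaning cytotoxicity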
[14] = luciferase reporter signal suppression in cells – H4 neuroglioma cells, luminescence, dose response (AID 1990); format: functional, cell-based

Chain of ORF 73 (O40947 whole entry): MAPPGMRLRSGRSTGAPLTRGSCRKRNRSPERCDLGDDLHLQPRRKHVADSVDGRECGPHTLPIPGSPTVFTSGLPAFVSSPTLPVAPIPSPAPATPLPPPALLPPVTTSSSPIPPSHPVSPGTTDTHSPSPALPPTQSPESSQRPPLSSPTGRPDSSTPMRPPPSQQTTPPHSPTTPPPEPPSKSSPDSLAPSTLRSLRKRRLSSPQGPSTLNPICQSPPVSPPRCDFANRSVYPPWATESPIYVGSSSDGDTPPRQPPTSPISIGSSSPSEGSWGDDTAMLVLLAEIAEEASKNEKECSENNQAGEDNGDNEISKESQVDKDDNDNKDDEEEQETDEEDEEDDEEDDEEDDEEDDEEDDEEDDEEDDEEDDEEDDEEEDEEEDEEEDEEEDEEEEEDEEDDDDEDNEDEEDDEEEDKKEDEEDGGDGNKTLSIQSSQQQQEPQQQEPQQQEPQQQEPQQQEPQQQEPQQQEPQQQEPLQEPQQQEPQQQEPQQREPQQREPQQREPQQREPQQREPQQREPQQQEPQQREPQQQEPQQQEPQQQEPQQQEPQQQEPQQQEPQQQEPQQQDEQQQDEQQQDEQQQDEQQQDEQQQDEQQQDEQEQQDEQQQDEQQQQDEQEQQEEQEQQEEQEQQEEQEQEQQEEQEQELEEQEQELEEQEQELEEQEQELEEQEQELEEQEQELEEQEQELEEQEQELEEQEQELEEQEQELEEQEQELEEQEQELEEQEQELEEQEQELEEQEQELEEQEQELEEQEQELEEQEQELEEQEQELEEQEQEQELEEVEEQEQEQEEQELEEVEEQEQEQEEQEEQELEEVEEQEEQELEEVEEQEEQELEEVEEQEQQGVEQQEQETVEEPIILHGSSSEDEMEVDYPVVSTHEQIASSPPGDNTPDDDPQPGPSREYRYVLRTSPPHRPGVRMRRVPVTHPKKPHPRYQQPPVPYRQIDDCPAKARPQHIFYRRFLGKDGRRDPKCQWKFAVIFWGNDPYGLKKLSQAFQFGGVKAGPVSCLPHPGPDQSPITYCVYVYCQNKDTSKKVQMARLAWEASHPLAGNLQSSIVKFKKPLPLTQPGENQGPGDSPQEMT
Chain of UDP-galactopyranose mutase (P9WIQ1 whole entry): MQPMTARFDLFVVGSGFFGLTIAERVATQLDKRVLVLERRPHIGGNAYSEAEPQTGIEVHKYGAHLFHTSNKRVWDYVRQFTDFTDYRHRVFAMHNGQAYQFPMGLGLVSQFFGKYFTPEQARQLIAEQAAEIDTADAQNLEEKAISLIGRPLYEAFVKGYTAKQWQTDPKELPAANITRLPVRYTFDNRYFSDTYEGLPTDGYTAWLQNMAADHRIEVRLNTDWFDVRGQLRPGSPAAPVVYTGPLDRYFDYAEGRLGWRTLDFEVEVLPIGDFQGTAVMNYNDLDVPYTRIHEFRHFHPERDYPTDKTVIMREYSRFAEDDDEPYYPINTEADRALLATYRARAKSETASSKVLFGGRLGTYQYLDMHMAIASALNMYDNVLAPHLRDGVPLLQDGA
Chain of Beta-adrenergic receptor kinase 1 (P25098 whole entry): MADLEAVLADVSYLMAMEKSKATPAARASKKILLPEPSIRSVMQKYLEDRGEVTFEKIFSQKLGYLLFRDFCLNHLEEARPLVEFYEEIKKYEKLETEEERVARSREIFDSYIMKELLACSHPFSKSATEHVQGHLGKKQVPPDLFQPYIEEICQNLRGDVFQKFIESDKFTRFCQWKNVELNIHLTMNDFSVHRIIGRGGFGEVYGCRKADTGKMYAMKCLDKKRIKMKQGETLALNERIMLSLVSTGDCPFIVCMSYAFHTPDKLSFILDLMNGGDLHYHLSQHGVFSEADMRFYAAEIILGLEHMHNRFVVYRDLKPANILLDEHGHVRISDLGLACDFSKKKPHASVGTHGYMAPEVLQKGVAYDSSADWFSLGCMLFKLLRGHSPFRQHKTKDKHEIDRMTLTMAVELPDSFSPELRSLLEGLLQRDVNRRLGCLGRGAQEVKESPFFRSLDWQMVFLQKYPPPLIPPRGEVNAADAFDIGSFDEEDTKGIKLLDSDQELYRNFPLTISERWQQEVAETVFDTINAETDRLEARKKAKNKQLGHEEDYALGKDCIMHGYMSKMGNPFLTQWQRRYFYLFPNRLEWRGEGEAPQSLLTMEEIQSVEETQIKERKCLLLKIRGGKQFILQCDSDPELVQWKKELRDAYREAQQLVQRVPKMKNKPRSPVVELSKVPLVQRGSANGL

## CCOc1ccc2noc3c2c1C(=O)c1ccccc1-3
HEK293 [1]
  IC50: > 89.1 µM (inactive)
Insulin-degrading enzyme [2]
  EC50: > 54.7 µM (inactive)
[3]
  AC50: 0.356 µM (active)
ORF 73
  AC50: 0.572 µM (active)
HEK293 [4]
  EC50: 4.95 µM (active)
[5]
  IC50: 87.4 µM (active)
Insulin-degrading enzyme [6]
  EC50: > 54.7 µM (inactive)

## COc1ccc(CCNC(=O)CCS(=O)(=O)c2ccc(Br)cc2)cc1OC
[7]
  EC50: 14.9 µM (active)

## CCOc1ccc(-c2cc(CCCC(=O)Nc3cccc(OC)c3)no2)cc1
Jurkat
  IC50: 9.95 µM (active)
[8]
  IC50: > 80 µM (inactive)
[9]
  EC50: 0.24 µM (active)
[10]
  AC50: 55.4 µM (active)
[11]
  EC50: 3.89 µM (active)
[12]
  AC50: 2.45 µM (active)
[13]
  AC50: 58.9 µM (active)
[14]
  EC50: 7.56 µM (active)
